The values that follow are results of earlier work, collected in patent publication US5717095A, “Nucleotide analogs” (Gilead Sciences, Inc., priority 1996, dated 1998).

Entries after “also recorded” stand apart in the source; their conditions may differ.

Data set [1] has as its system phocid herpesvirus type 1 (seal herpesvirus, SeHV). As to conditions: cited from earlier work.
The next data set deals with vaccinia virus. As to conditions: cited from earlier work.
Data set [2] concerns equid herpesvirus type 1 (equine abortion virus, EHV-1). As to conditions: cited from earlier work.
In data set [3] the test system is herpes simplex virus type 1. As to conditions: mice and rabbits, local and systemic HSV-1 infections, including herpetic keratitis caused by acyclovir-type-drug-resistant TK^- mutant; cited from earlier work.
Data set [4] has as its system simian herpesvirus type 1 (SHV-1), or pseudorabies virus or Aujeszky's disease virus. Particulars: SHV-1 / pseudorabies virus; cited from earlier work.
Data set [5] concerns herpes simplex virus, type 1 or 2 (HSV-1 and -2). As to conditions: cited from earlier work.
Data set [6] relates to varicella zoster virus (VZV). As to conditions: cited from earlier work.
In data set [7] the test system is thymidine kinase-deficient (TK^-) mutants of herpes simplex virus. As to conditions: TK^- HSV mutants; cited from earlier work.
In the next data set the test system is adenovirus. Particulars: cited from earlier work.
In another data set the test system is HCMV. Particulars: cited from earlier work.
Data set [8] relates to African swine fever (ASF) virus. As to conditions: cited from earlier work.
The subject of data set [9] is retroviruses such as murine sarcoma virus (MSV). Particulars: cited from earlier work.
The test system of data set [10] is bovid herpesvirus type 1 (infectious bovine rhinotracheitis virus, BHV-1). As to conditions: cited from earlier work.
Data set [11] deals with intraperitoneal P388 leukemia. As to conditions: murine; cited from earlier work.

On to `Nc1ncnc2c1ncn2C[C@@H](CO)OCP(=O)(O)O` [(S)-HPMPA], for which the antiviral activity entry in [1] was “potent and selective activity”; in the data set with vaccinia virus it was “active; also recorded: potent and selective activity”; in data set [2] it was “potent and selective activity”; in data set [4], “potent and selective activity”; in data set [5], “active; also recorded: potent and selective activity”; in [6], “active; also recorded: potent and selective activity”. The antiviral activity entry in data set [7] was “potent and selective activity”; in the data set with adenovirus it was “active; also recorded: potent and selective activity”; in the data set on HCMV, “potent and selective activity”; in data set [8] it was “potent and selective activity”; in data set [9] it was “potent and selective activity”; in data set [10], “potent and selective activity”. Also, in [3], the “in vivo antiviral effect” value is “effective”.
Regarding `Nc1ncnc2c1ncn2CC(CO)OCP(=O)(O)O` (centres unmarked) [HPMPA], the antitumor activity entry in data set [11] was “active”.
